Measured values as given in US20030040510A1, “Selective estrogen receptor modulators in combination with estrogens” (Endorecherche, Inc., priority 2000, published 2003).

What was measured:
[1] = system: breast and endometrial tissues; assay: Antiestrogens tested for SERM function and estrogenic activity in breast and endometrium
[2] = system: ovariectomized female rats; assay: Prevention of bone loss, body fat, serum cholesterol and ALP, 3-month treatment of OVX rats (Example 5A, experiment 1); type: in vivo, Sprague-Dawley rats; settings: OVX rats, 3 months
Description: (§1) Ten to twelve week-old female Sprague-Dawley rats (Crl:CD(SD)Br) (Charles River Laboratory, St-Constant, Canada) weighing approximately 220-270 g at start of treatment were used. The animals were acclimatized to the environmental conditions (temperature: 22±3° C.; humidity: 50±20%; 12-h light-12-h dark cycles, lights on at 07:15 h) for at least 1 week before starting the experiments. The animals were housed individually and were allowed free access to tap water and a pelleted certified rodent feed (Lab Diet 5002, Ralston Purina, St-Louis, Mo.). Experiments were conducted in an animal facility approved by the Canadian Council on Animal Care (CCAC) and the Association for Assessment and Accreditation of Laboratory Animal Care (AAALAC) in accordance with the CCAC Guide for Care and Use of Experimental Animals.
On day 1 of the study, the animals of the appropriate groups were bilaterally ovariectomized (OVX) under isoflurane anesthesia. […] Treatments were initiated on day 2 of the study and were performed once daily during 3 months.
After 3 months (experiment 1) or 26 weeks (experiment 2) of treatment, individual rats under Isoflurane anesthesia had their whole body skeleton and lumbar spine scanned using dual energy x-ray absorptiometry (DEXA; QDR 4500A, Hologic, Waltham, Mass.) and a Regional High Resolution Scan software. The bone mineral density (BMD) of the lumbar spine (vertebrae L2 to L4) and the total body composition (fat percentage) were determined.
After 3 months (experiment 1) or 26 weeks (experiment 2) of treatment, blood samples were collected at the jugular vein from overnight fasted animals (under Isoflurane anesthesia). Samples were processed for serum preparation and frozen at −80° C. until assay. Serum cholesterol levels and alkaline phospatase activity (ALP) were determined using the Boehringer Mannheim Diagnostic Hitachi 911 Analyzer (Boehringer Mannheim Diagnostic Laboratory Systems).

[3] = system: OVX rats having established osteopenia; assay: Treatment of OVX rats having established osteopenia, 26 weeks (Example 5B): BMD, total body fat; type: in vivo, Sprague-Dawley rats; settings: treatment started 10 weeks after OVX, 26 weeks daily
Description: as §1, with “Height” for “Ten”, “nine month-old” for “twelve week-old”, “Canada)” for “Canada) weighing approximately 220-270 g at start of treatment”, “used in this experiment.” for “used.”, “prior to” for “before starting”, “ovariectomy. Animals were bilaterally ovariectomized (OVX) under isoflurane anesthesia. Twenty animals were kept intact as control.” for “experiments.”
Treatments were initiated 10 weeks after the ovariectomy and were performed once daily during 26 weeks. Animals not receiving a test article were treated with the appropriate vehicle alone during the same period.
Prior to the OVX, prior to the first day treatment (10 weeks after OVX) and after 26 weeks of treatment, individual rats under Isoflurane anesthesia had their whole body skeleton, lumbar spine and right femur scanned using dual energy x-ray absorptiometry (DEXA; QDR 4500A, Hologic, Waltham, Mass.) and a Regional High Resolution Scan software. The bone mineral density (BMD) of the lumbar spine (vertebrae L2 to L4), femur and the total body composition (fat percentage) were determined.

[4] = system: ovariectomized rats supplemented with 17β-estradiol; assay: EM-652.HCl with oral 17β-estradiol for 2 weeks in OVX rats: uterus, endometrial epithelium, vagina, serum cholesterol (Example 10); type: in vivo, Sprague-Dawley rats; settings: for Reversal of the effect of E2 on uterine weight: 2 weeks
Description: Ten to twelve week-old female Sprague-Dawley rats (Crl:CD(SD)Br) (Charles River Laboratory, St-Constant, Canada) weighing 215-265 g at time of ovariectomy were used. The animals were housed individually in an environmentally-controlled room (temperature: 22±3° C.; humidity: 50±20%; 12-h light-12-h dark cycles, lights on at 07:15 h). The animals were allowed free access to tap water and a certified rodent feed (Lab Diet 5002 (pellet), Ralston Purina, St-Louis, Mo.). The experiment was conducted in an animal facility approved by the Canadian Council on Animal Care (CCAC) and the Association for Assessment and Accreditation of Laboratory Animal Care (AAALAC) in accordance with the CCAC Guide for Care and Use of Experimental Animals.
On the first day of the study, the animals of the appropriate groups were bilaterally ovariectomized (OVX) under isoflurane anesthesia. The tested compounds were then given once daily by oral gavage as a suspension in 0.4% methylcellulose (0.5 ml/rat) from day 1 to day 14 of the study. Animals of groups 1 and 2 received the vehicle alone during the same time period. On day 15 of the study, 4 animals per group were perfused with 10% buffered formalin and tissues were processed for histological examination. The other animals were killed by exsanguination at the abdominal aorta under isoflurane anesthesia. The uterus and vagina were removed, stripped of remaining fat and weighed. A specimen from each uterus was fixed in 10% buffered formalin for determination of the height of endometrial epithelial cells using a computerized-assisted program (Software Image-Pro Plus).
Total cholesterol was measured on serum samples collected from overnight fasted animals using a Boehringer Mannheim Diagnostic Hitachi 911 Analyzer (Boehringer Mannheim Diagnostic Laboratory Systems).

[5] = EM-652.HCl 3 mg/kg + E2 2 mg/kg
[6] = EM-652.HCl 10 mg/kg + E2 2 mg/kg

CC1=C(c2ccc(O)cc2)[C@H](c2ccc(OCCN3CCCCC3)cc2)Oc2cc(O)ccc21.Cl [EM-652.HCl, (S)-(+)-7-hydroxy-3-(4′-hydroxyphenyl)-4-methyl-2-(4″-(2′″-piperidinoethoxy)phenyl)-2H-1-benzopyran hydrochloride]
Function as SERM [1]: found to function as SERMs | Estrogenic activity in breast and endometrial tissues ([1]; physiological or pharmacological concentrations): do not have any estrogenic activity | OVX-induced fat percentage increase [2]: completely prevented | Serum ALP [2]: 91 ± 6 IU/L | Serum cholesterol [2]: 0.87 ± 0.04 mmol/L | Femoral BMD [3]: completely prevented the further decrease | Lumbar spine BMD [3]: completely prevented the further decrease | Total body fat [3]: prevented the 17% increase | Effect on the inhibitory action of E2 on serum cholesterol ([4]; EM-652.HCl 0.01 mg/kg to 0.3 mg/kg): no statistically significant effect | Reduction of the effect of E2 on serum cholesterol ([4]; EM-652.HCl 1.0 mg/kg): 36% | Reduction of the effect of E2 on serum cholesterol ([4]; EM-652.HCl 3.0 mg/kg): 30% | Prevention of E2-stimulated endometrial epithelial height [4, 5]: 83% | Reversal of the effect of E2 on uterine weight [4, 5]: 84% | Inhibition of the stimulatory effect of E2 on vaginal weight ([4]; EM-652.HCl 3 mg/kg, statistically non significant): 50% | Effect on the effect of E2 on vaginal weight ([4]; EM-652.HCl 10 mg/kg): complete reversal | Reduction of the effect of E2 on serum cholesterol ([4]; EM-652.HCl 10 mg/kg): 50% | Prevention of E2-stimulated endometrial epithelial height [4, 6]: 93% | Reversal of the effect of E2 on uterine weight [4, 6]: 87% | Inhibitory effect on E2-stimulated vaginal weight ([4]; EM-652.HCl up to 1 mg/kg): no significant inhibitory effect
